Source: patent US6706740B2, “Fungicidal heterocyclic aromatic amides and their compositions, methods of use and preparation” (Dow AgroSciences LLC, priority 1999, dated 2004)
Where two headings read alike, the source gives them in different places.

Assays:
Erysiphe graminis—ERYSGT = assay: Powdery Mildew of Wheat, in vivo whole plant, 24 Hour Protectant; details: control of fungal infection vs untreated plants; for pest or weed control at 100 ppm: Erysiphe, read-out: ERYSGT in vivo 1 Day Protectant
Ustilago maydis (USTIMA) = assay: microbe, parasite or virus in culture; format: cell-based; details: for inhibition at 25 ppm: Mycosarcoma maydis, read-out: USTIMA in vitro Growth Inhibition
[1] = test system: Stagonospora nodorum (Leptosphaeria nodorum—LEPTNO); assay: In vitro fungal growth inhibition, Stagonospora nodorum (LEPTNO); format: cell-based; details: for inhibition at 25 ppm: Leptosphaeria, read-out: LEPTNO in vitro Growth Inhibition
[2] = test system: Magnaporthe grisea (Pyricularia oryzae—PYRIOR); assay: microbe, parasite or virus in culture; format: cell-based; details: for inhibition at 25 ppm: Pyricularia oryzae, read-out: PYRIOR in vitro Growth Inhibition
[3] = test system: Phytophthora infestans—PHYTIN; assay: whole plant or invertebrate; format: in vivo; details: for pest or weed control at 100 ppm: Phytophthora, in Solanum lycopersicum, 24 h, read-out: PHYTIN in vivo 1 Day Protectant
Septoria tritici—SEPTTR = assay: Leaf Blotch of Wheat, in vivo whole plant, 24 Hour Protectant; details: control of fungal infection vs untreated plants; for pest or weed control at 100 ppm: Zymoseptoria tritici, 24 h, read-out: SEPTTR in vivo 1 Day Protectant
[4] = test system: Leptosphaeria nodorum—LEPTNO; assay: Glume Blotch of Wheat, in vivo whole plant, 24 Hour Protectant; details: control of fungal infection vs untreated plants; for pest or weed control at 100 ppm: Leptosphaeria, read-out: LEPTNO in vivo 1 Day Protectant
[5] = test system: Rhizoctonia solani (RHIZSO); assay: microbe, parasite or virus in culture; format: cell-based; details: for inhibition at 25 ppm: Rhizoctonia solani, read-out: RHIZSO in vitro Growth Inhibition
[6] = test system: Phytophthora infestans (PHYTIN); assay: microbe, parasite or virus in culture; format: cell-based; details: for inhibition at 25 ppm: Phytophthora infestans, read-out: PHYTIN in vitro Growth Inhibition
[7] = test system: Mycosphaerella graminicola (Septoria tritici—SEPTTR); assay: In vitro fungal growth inhibition, Mycosphaerella graminicola (SEPTTR); format: cell-based; details: for inhibition at 25 ppm: Zymoseptoria tritici, read-out: SEPTTR in vitro Growth Inhibition
[8] = test system: Puccinia recondita—PUCCRT; assay: Brown Rust of Wheat, in vivo whole plant, 24 Hour Protectant; details: control of fungal infection vs untreated plants; for pest or weed control at 100 ppm: Puccinia, read-out: PUCCRT in vivo 1 Day Protectant
[9] = 100 ppm spray, wheat, 24 hour protectant
[10] = wheat plants sprayed at 100 ppm, inoculated after 24 hours
[11] = 100 ppm spray, 24 hour protectant, wheat

Row | SMILES | pest or weed control at 100 ppm (Erysiphe graminis—ERYSGT; [9]) [%] | inhibition at 25 ppm (Ustilago maydis (USTIMA)) [%] | inhibition at 25 ppm ([1]; 25 ppm in growth medium) [%] | inhibition at 25 ppm [2] [%] | pest or weed control at 100 ppm [3] [%] | pest or weed control at 100 ppm (Septoria tritici—SEPTTR; [9]) [%] | inhibition at 25 ppm [5] [%] | inhibition at 25 ppm [6] [%] | inhibition at 25 ppm ([7]; 25 ppm in growth medium) [%] | pest or weed control at 100 ppm (Erysiphe graminis—ERYSGT; [10]) [%] | inhibition at 25 ppm ([1]; 25 ppm in the growth medium) [%] | pest or weed control at 100 ppm (Septoria tritici—SEPTTR; [10]) [%] | pest or weed control at 100 ppm [4, 10] [%] | inhibition at 25 ppm ([7]; 25 ppm in the growth medium) [%] | pest or weed control at 100 ppm [8, 10] [%] | pest or weed control at 100 ppm [8, 9] [%] | also measured
1 | COc1ccnc(C(=O)N[C@H](C(=O)O[C@@H](C)[C@H](OC(=O)C(C)C)[C@@H](Cc2ccccc2)C(=O)OCc2ccccc2)[C@@H](C)OC(C)=O)c1O [Compound 361] | < 25 | < 80 | < 80 | > 80 | < 25 | < 25 | < 80 | > 80 | > 80 |  |  |  |  |  |  |  | pest or weed control at 100 ppm [4, 9]: 25 to 74%; PUCCRT in vivo 1 Day Protectant [8, 9]: + +
2 | O=C(NCc1ccc(Cl)cc1)c1ccncc1O [Compound 507] |  | < 80 |  | < 80 | < 25 |  | < 80 | < 80 |  | < 25 | < 80 | < 25 | < 25 | < 80 | < 25 |  | 
3 | COc1ccnc(C(=O)NC(COC(=O)CCc2ccccc2)C(=O)OC(C)COC(=O)C(C)C)c1O (stereo not drawn) [Compound 359] |  |  |  |  |  |  |  |  |  |  |  |  |  |  |  |  | ERYSGT in vivo 1 Day Protectant (Erysiphe graminis—ERYSGT; [9]): − (<25% control of fungal infection); USTIMA in vitro Growth Inhibition (Ustilago maydis (USTIMA)): − (key: +: at least 80% growth inhibition; −: less than 80% growth inhibition); LEPTNO in vitro Growth Inhibition ([1]; 25 ppm in growth medium): − (less than 80% growth inhibition); PYRIOR in vitro Growth Inhibition ([2]; 25 ppm in growth medium): − (less than 80% growth inhibition); PHYTIN in vivo 1 Day Protectant ([3]; 100 ppm spray, tomato, 24 hour protectant, control of fungal infection vs untreated plants): − (<25% control of fungal infection); SEPTTR in vivo 1 Day Protectant (Septoria tritici—SEPTTR; [9]): + +; LEPTNO in vivo 1 Day Protectant [4, 9]: + (25-74% control of fungal infection); RHIZSO in vitro Growth Inhibition [5]: − (key: +: at least 80% growth inhibition; −: less than 80% growth inhibition); PHYTIN in vitro Growth Inhibition ([6]; 25 ppm in growth medium): − (less than 80% growth inhibition); SEPTTR in vitro Growth Inhibition ([7]; 25 ppm in growth medium): − (less than 80% growth inhibition); PUCCRT in vivo 1 Day Protectant [8, 9]: + +
4 | COc1ccnc(C(=O)N[C@H]2CO[C@H](C(C)Cc3ccc(C(C)(C)C)cc3)OC2)c1O (stereo partly drawn) [Compound 316] |  | > 80 | > 80 | > 80 | < 25 |  | < 80 | < 80 | < 80 |  |  |  |  |  |  |  | pest or weed control at 100 ppm (Erysiphe graminis—ERYSGT; [11]): < 25%; pest or weed control at 100 ppm (Septoria tritici—SEPTTR; [11]): < 25%; pest or weed control at 100 ppm [4, 11]: 25 to 74%; PUCCRT in vivo 1 Day Protectant [8, 11]: + +
5 | COc1ccnc(C(=O)Nc2ccccc2Oc2ccc(Cl)cc2)c1O [Compound 438] | < 25 | < 80 | > 80 | > 80 | < 25 | < 25 | < 80 | < 80 | > 80 |  |  |  |  |  |  | < 25 | pest or weed control at 100 ppm [4, 9]: < 25%
6 | COc1ccnc(C(=O)N[C@@H](Cc2ccc(OCc3ccccc3)cc2)C(=O)O)c1O [Compound 337] | < 25 | < 80 | < 80 | < 80 | < 25 | < 25 | < 80 | < 80 | < 80 |  |  |  |  |  |  | 25 to 74 | LEPTNO in vivo 1 Day Protectant [4, 9]: + +
7 | COc1ccnc(C(=O)Nc2ccc(Oc3ccc(C)cc3)cc2)c1O [Compound 417] | < 25 | < 80 | < 80 | > 80 | < 25 | < 25 | < 80 | < 80 | > 80 |  |  |  |  |  |  | < 25 | LEPTNO in vivo 1 Day Protectant [4, 9]: + +
8 | COc1ccnc(C(=O)NC2CC(C(F)(F)F)CC(C(F)(F)F)C2)c1O (stereo not drawn) [Compound 256] |  | < 80 | < 80 | < 80 | < 25 |  | < 80 | < 80 | < 80 |  |  |  |  |  |  |  | pest or weed control at 100 ppm (Erysiphe graminis—ERYSGT; [11]): 25 to 74%; pest or weed control at 100 ppm (Septoria tritici—SEPTTR; [11]): 25 to 74%; pest or weed control at 100 ppm [4, 11]: 25 to 74%; pest or weed control at 100 ppm [8, 11]: 25 to 74%
9 | O=C(Nc1ccccc1Oc1ccc(C(F)(F)F)cc1)c1nc(Br)ccc1O [Compound 493] |  | < 80 |  | < 80 | < 25 |  | < 80 | < 80 |  | < 25 | < 80 | 25 to 74 | < 25 | < 80 | < 25 |  | 
10 | N#Cc1ccc(Oc2cccc(NC(=O)c3nc(Br)ccc3O)c2)cc1 [Compound 500] |  | < 80 |  | < 80 | < 25 |  | < 80 | < 80 |  | < 25 | < 80 | 25 to 74 | < 25 | < 80 | < 25 |  | 
11 | COc1ccnc(C(=O)N[C@@H]2OC[C@@H](OCc3ccccc3)[C@H](OCc3ccccc3)[C@H]2OCc2ccccc2)c1OC(C)=O [Compound 592] |  | < 80 |  | < 80 | < 25 |  | < 80 | < 80 |  | < 25 | < 80 | 25 to 74 | 25 to 74 | < 80 | < 25 |  | 
12 | COc1ccnc(C(=O)Nc2ccc(Oc3ccccc3Cl)cc2)c1O [Compound 441] | < 25 | < 80 | < 80 | < 80 | < 25 | < 25 | < 80 | < 80 | > 80 |  |  |  |  |  |  | < 25 | pest or weed control at 100 ppm [4, 9]: < 25%
13 | CSc1nnc(C(=O)N[C@H]2COC(=O)[C@H](Cc3ccccc3)[C@@H](OC(=O)C(C)C)[C@H](C)OC2=O)c(O)n1 [Compound 547] |  | < 80 |  | < 80 | 25 to 74 |  | < 80 | > 80 |  | < 25 | < 80 | 25 to 74 | < 25 | < 80 | 25 to 74 |  | 
14 | COc1ccnc(C(=O)Nc2ccc(OCc3ccc(C(F)(F)F)cc3)cc2)c1O [Compound 448] | < 25 | > 80 | < 80 | < 80 | < 25 | 25 to 74 | < 80 | < 80 | < 80 |  |  |  |  |  |  | 25 to 74 | LEPTNO in vivo 1 Day Protectant [4, 9]: + +
15 | COC(=O)C(COC(=O)COCc1ccccc1)NC(=O)c1nccc(OC)c1OC(C)=O (stereo not drawn) [Compound 585] |  | < 80 |  | < 80 | < 25 |  | < 80 | < 80 |  | < 25 | < 80 | 25 to 74 | 25 to 74 | < 80 | 25 to 74 |  | 
